PubChem BioAssay (NCI)
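Results reflect a 48-hour exposure of cells in 96-well plates to compound at five concentrations. Abbreviation: GI50, concentration required for 50% inhibition of growth. TGI is the concentration that stops growth completely.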

Legend:
Test in all cases: growth of human tumour cells (NCI), 48 h
[1] = system: 786-0 renal
[2] = system: SNB-75 CNS
[3] = system: OVCAR-8 ovarian
[4] = system: SF-295 CNS
[5] = system: HT29 colon
[6] = system: TK-10 renal
[7] = system: CAKI-1 renal
[8] = system: A498 renal
[9] = system: PC-3 prostate
[10] = system: A549 NSCLC
[11] = system: SR leukemia
[12] = system: SK-MEL-2 melanoma
[13] = system: HCT-15 colon
[14] = system: RXF 393 renal
[15] = system: COLO 205 colon
[16] = system: NCI/ADR-RES ovarian
[17] = system: HCT-116 colon
[18] = system: MDA-MB-231 breast
[19] = system: MOLT-4 leukemia
[20] = system: MCF7 breast
[21] = system: NCI-H522 lung
[22] = system: UACC-62 melanoma
[23] = system: EKVX NSCLC
[24] = system: OVCAR-4 ovarian
[25] = system: HOP-92 NSCLC
[26] = system: MDA-N
[27] = system: UO-31 renal
[28] = system: HCC-2998 colon
[29] = system: MALME-3M melanoma
[30] = system: NCI-H23 lung
[31] = system: RPMI-8226 leukemia
[32] = system: SNB-19 CNS
[33] = system: SN12C renal
[34] = system: SF-539 CNS
[35] = system: KM12 colon
[36] = system: SW-620 colon
[37] = system: SF-268 CNS
[38] = system: OVCAR-5 ovarian
[39] = system: NCI-H460 lung
[40] = system: NCI-H226 lung
[41] = system: HS 578T breast
[42] = system: HOP-62 NSCLC
[43] = system: M14 melanoma
[44] = system: DU-145 prostate
[45] = system: SK-OV-3 ovarian
[46] = system: MDA-MB-435
[47] = system: LOX IMVI melanoma
[48] = system: U251 CNS
[49] = system: T-47D breast
[50] = system: IGROV1 ovarian
[51] = system: HL-60(TB) leukemia
[52] = system: CCRF-CEM leukemia
[53] = system: SK-MEL-5 melanoma
[54] = system: ACHN renal
[55] = system: OVCAR-3 ovarian
[56] = system: UACC-257 melanoma
[57] = system: SK-MEL-28 melanoma
[58] = system: K-562 leukemia
[59] = system: BT-549 breast

CC(C)=Cc1cc2c(cc1O)CCC1C2CC[C@@]2(C)C1CC[C@@H]2O (stereo not given in full)
TGI [1]: 25 µM
TGI [2]: 24.8 µM
TGI [3]: 40.7 µM
TGI [4]: 7.57 µM
TGI [5]: 30.8 µM
TGI [6]: 9.68 µM
TGI [7]: 29.5 µM
TGI [8]: 29.9 µM
TGI [9]: 28.6 µM
TGI [10]: 27.5 µM
TGI [11]: 6.94 µM
TGI [12]: 32.7 µM
TGI [13]: 24.4 µM
TGI [14]: 20.9 µM
TGI [15]: 32.7 µM
TGI [16]: 28 µM
TGI [17]: 23.4 µM
TGI [18]: 35.2 µM
TGI [19]: 25.3 µM
TGI [20]: 37.4 µM
TGI [21]: 31.2 µM
GI50 [22]: 11 µM
TGI [22]: 24.7 µM
TGI [23]: 31.5 µM
TGI [24]: 61 µM
TGI [25]: 42.1 µM
TGI [26]: 7.14 µM
TGI [27]: 27.4 µM
TGI [28]: 31.8 µM
TGI [29]: 22.5 µM
TGI [30]: 35.2 µM
TGI [31]: 26 µM
TGI [32]: 24.4 µM
TGI [33]: 30 µM
GI50 [34]: 7.6 µM
TGI [34]: 22.4 µM
TGI [35]: 25.3 µM
TGI [36]: 23.6 µM
TGI [37]: 36.2 µM
TGI [38]: 31.8 µM
TGI [39]: 26.1 µM
TGI [40]: 26.1 µM
TGI [41]: 65.6 µM
GI50 [42]: 15 µM
TGI [42]: 31.7 µM
TGI [43]: 22.8 µM
TGI [44]: 27.7 µM
TGI [45]: 35 µM
GI50 [46]: 3.02 µM
TGI [46]: 11.7 µM
TGI [47]: 16.1 µM
TGI [48]: 22.2 µM
TGI [49]: 89.5 µM
TGI [50]: 29.9 µM
TGI [51]: 37.5 µM
TGI [52]: 40.8 µM
TGI [53]: 19.3 µM
TGI [54]: 29.5 µM
GI50 [55]: 5.27 µM
TGI [55]: 19.9 µM
TGI [56]: 30.5 µM
TGI [57]: 30.2 µM
TGI [58]: 13.8 µM

Cc1cc(S(=O)(=O)O)ccc1N=Nc1c(O)ccc2ccccc12
TGI [1]: > 100 µM
TGI [2]: > 100 µM
TGI [3]: > 100 µM
TGI [4]: > 100 µM
TGI [5]: > 100 µM
TGI [6]: > 100 µM
TGI [7]: > 100 µM
TGI [9]: > 100 µM
TGI [10]: > 100 µM
TGI [12]: > 100 µM
TGI [13]: > 100 µM
TGI [14]: > 100 µM
TGI [15]: > 100 µM
TGI [16]: > 100 µM
TGI [17]: > 100 µM
TGI [18]: > 100 µM
TGI [19]: > 100 µM
TGI [59]: > 100 µM
TGI [21]: > 100 µM
TGI [22]: > 100 µM
TGI [23]: > 100 µM
TGI [24]: > 100 µM
TGI [25]: > 100 µM
TGI [26]: > 100 µM
TGI [27]: > 100 µM
TGI [29]: > 100 µM
TGI [30]: > 100 µM
TGI [31]: > 100 µM
TGI [32]: > 100 µM
TGI [33]: > 100 µM
TGI [35]: > 100 µM
TGI [36]: > 100 µM
TGI [37]: > 100 µM
TGI [38]: > 100 µM
TGI [40]: > 100 µM
TGI [41]: > 100 µM
TGI [42]: > 100 µM
TGI [43]: > 100 µM
TGI [44]: > 100 µM
TGI [45]: > 100 µM
TGI [46]: > 100 µM
TGI [48]: > 100 µM
TGI [49]: > 100 µM
TGI [50]: > 100 µM
TGI [51]: > 100 µM
TGI [52]: > 100 µM
TGI [53]: > 100 µM
TGI [54]: > 100 µM
TGI [55]: > 100 µM
TGI [56]: > 100 µM
TGI [57]: > 100 µM
TGI [58]: > 100 µM
